What was measured:
[1] = target: T1, Peroxisome proliferator-activated receptor gamma (Homo sapiens, UniProt P37231); test: In vitro binding affinity for human peroxisome proliferator activated receptor gamma using scintillation proximity assay (SPA)
T1 sequence (P37231 whole entry): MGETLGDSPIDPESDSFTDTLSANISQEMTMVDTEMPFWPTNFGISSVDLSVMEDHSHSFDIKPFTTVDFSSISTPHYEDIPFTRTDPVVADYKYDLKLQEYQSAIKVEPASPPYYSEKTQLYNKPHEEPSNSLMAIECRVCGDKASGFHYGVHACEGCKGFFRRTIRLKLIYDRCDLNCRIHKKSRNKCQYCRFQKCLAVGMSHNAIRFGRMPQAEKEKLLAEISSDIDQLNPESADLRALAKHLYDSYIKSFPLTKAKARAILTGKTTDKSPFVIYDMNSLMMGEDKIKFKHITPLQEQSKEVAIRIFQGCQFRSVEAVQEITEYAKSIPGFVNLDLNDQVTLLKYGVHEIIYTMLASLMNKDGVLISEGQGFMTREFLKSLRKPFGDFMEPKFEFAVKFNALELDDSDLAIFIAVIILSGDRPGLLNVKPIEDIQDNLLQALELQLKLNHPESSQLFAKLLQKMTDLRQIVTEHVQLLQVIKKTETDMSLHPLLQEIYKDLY

[2] = target: T1, Peroxisome proliferator-activated receptor gamma; test: In vitro transcriptional activation by human PPAR gamma Gal4 chimera
[3] = target: T2, Peroxisome proliferator-activated receptor alpha (Homo sapiens, UniProt Q07869); test: In vitro potency of PPAR gene activation against human Peroxisome proliferator activated receptor alpha using chimeric Gal4-hPPAR transactivation assay (TA)
T2 sequence (Q07869 whole entry): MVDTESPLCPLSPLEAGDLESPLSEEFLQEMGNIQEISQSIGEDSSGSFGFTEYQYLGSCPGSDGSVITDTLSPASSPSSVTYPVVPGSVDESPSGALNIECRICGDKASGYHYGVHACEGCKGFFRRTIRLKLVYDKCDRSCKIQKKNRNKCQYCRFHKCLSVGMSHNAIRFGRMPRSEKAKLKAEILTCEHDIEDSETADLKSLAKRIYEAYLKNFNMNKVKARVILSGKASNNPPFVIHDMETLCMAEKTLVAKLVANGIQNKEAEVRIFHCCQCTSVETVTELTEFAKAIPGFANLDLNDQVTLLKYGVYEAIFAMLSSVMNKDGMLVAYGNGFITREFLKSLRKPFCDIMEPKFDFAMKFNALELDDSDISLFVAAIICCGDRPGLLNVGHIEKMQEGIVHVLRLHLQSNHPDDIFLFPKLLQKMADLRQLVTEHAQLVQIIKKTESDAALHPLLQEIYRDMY

[4] = target: T3, Peroxisome proliferator-activated receptor delta (Homo sapiens, UniProt Q03181)
T3 sequence (Q03181 whole entry): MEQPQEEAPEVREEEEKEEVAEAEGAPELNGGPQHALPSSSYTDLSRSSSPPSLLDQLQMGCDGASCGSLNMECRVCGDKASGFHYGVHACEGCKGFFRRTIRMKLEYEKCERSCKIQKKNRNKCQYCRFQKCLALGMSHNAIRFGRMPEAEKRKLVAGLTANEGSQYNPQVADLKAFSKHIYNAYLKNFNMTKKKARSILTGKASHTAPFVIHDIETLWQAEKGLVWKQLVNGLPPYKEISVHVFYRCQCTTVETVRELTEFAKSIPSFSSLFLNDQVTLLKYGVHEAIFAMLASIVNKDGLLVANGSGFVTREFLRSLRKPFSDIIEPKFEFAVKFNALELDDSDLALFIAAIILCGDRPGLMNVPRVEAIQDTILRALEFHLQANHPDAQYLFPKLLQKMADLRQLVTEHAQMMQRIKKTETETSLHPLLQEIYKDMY

[5] = target: T2, Peroxisome proliferator-activated receptor alpha
Description: In vitro binding affinity for human peroxisome proliferator activated receptor alpha using scintillation proximity assay (SPA)

[6] = target: T2, Peroxisome proliferator-activated receptor alpha; test: In vitro transcriptional activation by human PPAR alpha Gal4 chimera; Not active
[7] = target: T1, Peroxisome proliferator-activated receptor gamma
Description: In vitro potency of PPAR gene activation against human PPAR gamma receptor using chimeric Gal4-hPPAR transactivation assay (TA)

[8] = target: T1, Peroxisome proliferator-activated receptor gamma; remark: listed apart in the source
Description: In vitro binding affinity for human PPAR gamma receptor using scintillation proximity assay (SPA)

[9] = tested on: Canis familiaris; test: In vivo percent change in serum cholesterol in dogs at 50 mg/kg; assay type: functional, Canis lupus familiaris
[10] = tested on: Cricetinae gen. sp.; test: In vivo percent change in serum cholesterol in hamsters at 100 mg/kg; assay type: functional, Cricetulus griseus
[11] = tested on: Cricetinae gen. sp.; test: In vivo percent change in triglyceride in hamsters at 100 mg/kg; assay type: functional, Cricetulus griseus
[12] = tested on: Cricetinae gen. sp.; test: In vivo serum cholesterol in hamsters at 100 mg/kg; assay type: functional, Cricetulus griseus

IC50 [1]	EC50 [2]	EC50 [3]	IC50 [4]	IC50 [5]	SMILES	EC50 [6]	EC50 [7]	IC50 [8]	Change [9]	Change [10]	Change [11]	Activity [12]
4700 nM	1000 nM	50 nM	> 50000 nM	370 nM	CCC1(C(=O)O)CCc2ccc(OCCCOc3ccc(Oc4ccccc4)cc3F)cc2O1 (stereo not given)							
1200 nM		10 nM	> 50000 nM	970 nM	CCCc1cc(Oc2ccc(F)cc2)ccc1OCCCOc1ccc2c(c1)OC(CC)(C(=O)O)CC2 (stereo not given)		750 nM					
750 nM		100 nM	> 50000 nM	1900 nM	CCCc1cc(Oc2ccccc2)ccc1OCCCOc1ccc2c(c1)OC(C)(C(=O)O)CC2 (stereo not given)		1000 nM					
			> 50000 nM		CC[C@@]1(C(=O)O)CCc2ccc(OCCCOc3ccc(Oc4ccc(F)cc4)cc3Cl)cc2O1							
630 nM		4600 nM	> 50000 nM	> 15000 nM	CCCc1cc(Oc2ccc(OC)cc2)ccc1OCCCOc1ccc2c(c1)OC(CC)(C(=O)O)CC2 (stereo not given)		890 nM					

The remaining lines, values behind:

SMILES	IC50 [1]	EC50 [2]	EC50 [3]	IC50 [4]	IC50 [5]	EC50 [6]	EC50 [7]	IC50 [8]	Change [9]	Change [10]	Change [11]	Activity [12]
CCCc1cc(Oc2ccccc2)ccc1OCCCCOc1ccc2c(c1)CCC(C(=O)O)O2 (stereo not given)	3000 nM			> 50000 nM	5800 nM	Not Active	2500 nM					
CCCc1cc(Oc2ccc(S(C)(=O)=O)cc2)ccc1OCCCOc1ccc2c(c1)OC(CC)(C(=O)O)CC2 (stereo not given)				> 50000 nM	> 15000 nM	Not Active	2800 nM	370 nM				
CCCc1cc(Oc2ccccc2)ccc1OCCCCOc1ccc2c(c1)CCC(C)(C(=O)O)O2 (stereo not given)	2300 nM			> 50000 nM	2000 nM	Not Active	1200 nM					
CC(C)OC(=O)C(C)(C)Oc1ccc(C(=O)c2ccc(Cl)cc2)cc1 [FENOFIBRATE]									-16.3%	-38%	-44%	67 mg/dL
CCCc1cc(Oc2ccccc2)ccc1OCCCCOc1ccc2c(c1)OC(C)(C(=O)O)CC2 (stereo not given)	5100 nM		5200 nM	> 50000 nM	> 15000 nM		3600 nM					
CCCc1cc(Oc2ccccc2)ccc1OCCCOc1ccc2c(c1)CCC(C(=O)O)O2 (stereo not given)	2900 nM			> 15000 nM	> 15000 nM	Not Active	2800 nM					
